Measured values: ChEMBL document CHEMBL1201862, “PubChem BioAssay data set” (2004)
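Method: 48-hour compound exposure of cells in 96-well plates, five concentrations, linear interpolation of endpoints. Abbreviation: GI50, concentration required for 50% inhibition of growth.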 Calls of active or inactive are those of the source. No stated cut-off is given here; in the data, active = GI50 up to about 1.1 µM and inactive = higher.

How the values were obtained:
Assay in all cases: NCI tumour cell line growth inhibition, 48 h
K562 = system: K562
IGROV-1 = system: IGROV-1
HT-29 = system: HT-29
CCRF-CEM = system: CCRF-CEM
MCF7 = system: MCF7
ACHN = system: ACHN
NCI-H23 = system: NCI-H23
TK-10 = system: TK-10
LOX IMVI = system: LOX IMVI
Hs-578T = system: Hs-578T
OVCAR-4 = system: OVCAR-4
786-0 = system: 786-0
UACC-257 = system: UACC-257
EKVX = system: EKVX
A498 = system: A498
SF-268 = system: SF-268
SF-295 = system: SF-295
M14 = system: M14
MDA-MB-231 = system: MDA-MB-231
OVCAR-3 = system: OVCAR-3
HCT-116 = system: HCT-116
HOP-92 = system: HOP-92
RXF 393 = system: RXF 393
CAKI-1 = system: CAKI-1
MDA-MB-435 = system: MDA-MB-435
SW-620 = system: SW-620
SF-539 = system: SF-539
HCC 2998 = system: HCC 2998
OVCAR-5 = system: OVCAR-5
NCI-H460 = system: NCI-H460
NCI-H226 = system: NCI-H226
SK-MEL-5 = system: SK-MEL-5
UO-31 = system: UO-31
HOP-62 = system: HOP-62
DU-145 = system: DU-145
SK-OV-3 = system: SK-OV-3
U-251 = system: U-251
PC-3 = system: PC-3
NCI-H522 = system: NCI-H522
SR = system: SR
HCT-15 = system: HCT-15
OVCAR-8 = system: OVCAR-8
SK-MEL-2 = system: SK-MEL-2
RPMI-8226 = system: RPMI-8226
T47D = system: T47D
KM12 = system: KM12
MDA-N = system: MDA-N
HL-60 = system: HL-60
SK-MEL-28 = system: SK-MEL-28
NCI/ADR-RES = system: NCI/ADR-RES
MOLT-4 = system: MOLT-4
A549 = system: A549
SNB-75 = system: SNB-75
SN12C = system: SN12C
SNB-19 = system: SNB-19
COLO 205 = system: COLO 205
UACC-62 = system: UACC-62
Malme-3M = system: Malme-3M

CC1=NN(c2cccc(Cl)c2)C2(SCC(=O)N2c2nc3ccccc3s2)/C1=C\c1ccccc1O (stereo not drawn)
GI50 (K562): 5.65 µM (inactive)
GI50 (IGROV-1): 17.4 µM (inactive)
GI50 (HT-29): 23.4 µM (inactive)
GI50 (CCRF-CEM): 15.1 µM (inactive)
GI50 (MCF7): 20 µM (inactive)
GI50 (ACHN): 15.5 µM (inactive)
GI50 (NCI-H23): 16 µM (inactive)
GI50 (TK-10): 42.4 µM (inactive)
GI50 (LOX IMVI): 30.5 µM (inactive)
GI50 (Hs-578T): 27.8 µM (inactive)
GI50 (OVCAR-4): 21.4 µM (inactive)
GI50 (786-0): 16.3 µM (inactive)
GI50 (UACC-257): 31.4 µM (inactive)
GI50 (EKVX): 30.5 µM (inactive)
GI50 (A498): 11 µM (inactive)
GI50 (SF-268): 22.6 µM (inactive)
GI50 (SF-295): 25.8 µM (inactive)
GI50 (M14): 21.7 µM (inactive)
GI50 (MDA-MB-231): 20.2 µM (inactive)
GI50 (OVCAR-3): 15.8 µM (inactive)
GI50 (HCT-116): 14.9 µM (inactive)
GI50 (HOP-92): 10.1 µM (inactive)
GI50 (RXF 393): 17 µM (inactive)
GI50 (CAKI-1): 21.4 µM (inactive)
GI50 (MDA-MB-435): 21.3 µM (inactive)
GI50 (SW-620): 16.7 µM (inactive)
GI50 (SF-539): 33.5 µM (inactive)
GI50 (HCC 2998): 21.6 µM (inactive)
GI50 (OVCAR-5): 25.4 µM (inactive)
GI50 (NCI-H460): 31.8 µM (inactive)
GI50 (NCI-H226): 34.3 µM (inactive)
GI50 (SK-MEL-5): 13.4 µM (inactive)
GI50 (UO-31): 15.7 µM (inactive)
GI50 (HOP-62): 20.9 µM (inactive)
GI50 (DU-145): 18.3 µM (inactive)
GI50 (SK-OV-3): 18.4 µM (inactive)
GI50 (U-251): 19.2 µM (inactive)
GI50 (PC-3): 19.8 µM (inactive)
GI50 (NCI-H522): 19.8 µM (inactive)
GI50 (SR): 13.7 µM (inactive)
GI50 (HCT-15): 14.6 µM
GI50 (OVCAR-8): 18.1 µM (inactive)
GI50 (SK-MEL-2): 17.6 µM (inactive)
GI50 (RPMI-8226): 11.9 µM (inactive)
GI50 (T47D): 3.99 µM (inactive)
GI50 (KM12): 19.7 µM (inactive)
GI50 (MDA-N): 22.3 µM (inactive)
GI50 (HL-60): 14.2 µM (inactive)
GI50 (SK-MEL-28): 24.8 µM (inactive)
GI50 (NCI/ADR-RES): 19.7 µM (inactive)
GI50 (MOLT-4): 11.9 µM (inactive)

CCCCCCCCCCCC1=NCCN1
GI50 (K562): 39.6 µM (inactive)
GI50 (A549): 90.6 µM (inactive)
GI50 (HT-29): > 100 µM (inactive)
GI50 (CCRF-CEM): 22.9 µM (inactive)
GI50 (MCF7): 38.9 µM (inactive)
GI50 (ACHN): > 100 µM (inactive)
GI50 (NCI-H23): 93.8 µM (inactive)
GI50 (TK-10): > 100 µM (inactive)
GI50 (LOX IMVI): 3.75 µM (inactive)
GI50 (Hs-578T): 83.9 µM (inactive)
GI50 (OVCAR-4): 14.8 µM (inactive)
GI50 (SNB-75): 32 µM (inactive)
GI50 (UACC-257): > 100 µM (inactive)
GI50 (A498): 0.557 µM (active)
GI50 (SF-268): > 100 µM (inactive)
GI50 (SF-295): 87.7 µM (inactive)
GI50 (M14): > 100 µM (inactive)
GI50 (MDA-MB-231): 23.8 µM (inactive)
GI50 (SN12C): 77.6 µM (inactive)
GI50 (SNB-19): > 100 µM (inactive)
GI50 (OVCAR-3): 95.3 µM (inactive)
GI50 (HCT-116): 56.6 µM (inactive)
GI50 (HOP-92): 94 µM (inactive)
GI50 (RXF 393): > 100 µM (inactive)
GI50 (MDA-MB-435): > 100 µM (inactive)
GI50 (SW-620): 34.7 µM (inactive)
GI50 (COLO 205): 19.4 µM (inactive)
GI50 (HCC 2998): 19.5 µM (inactive)
GI50 (NCI-H460): 30.1 µM (inactive)
GI50 (NCI-H226): > 100 µM (inactive)
GI50 (SK-MEL-5): 38.6 µM (inactive)
GI50 (UO-31): 32.1 µM (inactive)
GI50 (DU-145): 74.1 µM (inactive)
GI50 (SK-OV-3): > 100 µM (inactive)
GI50 (U-251): 49.9 µM (inactive)
GI50 (PC-3): 19.4 µM (inactive)
GI50 (NCI-H522): 26.5 µM (inactive)
GI50 (SR): 19.9 µM (inactive)
GI50 (HCT-15): 15.1 µM
GI50 (OVCAR-8): > 100 µM (inactive)
GI50 (T47D): 73.3 µM (inactive)
GI50 (KM12): 63.8 µM (inactive)
GI50 (MDA-N): > 100 µM (inactive)
GI50 (SK-MEL-28): > 100 µM (inactive)
GI50 (NCI/ADR-RES): > 100 µM (inactive)
GI50 (MOLT-4): 17.9 µM (inactive)

COc1cc(OC)c2nc(C)c3c(c2c1)SCC3
GI50 (K562): > 100 µM (inactive)
GI50 (IGROV-1): 17.2 µM (inactive)
GI50 (A549): 21.1 µM (inactive)
GI50 (HT-29): 40.6 µM (inactive)
GI50 (CCRF-CEM): > 100 µM (inactive)
GI50 (MCF7): 15.6 µM (inactive)
GI50 (ACHN): 18.7 µM (inactive)
GI50 (NCI-H23): 31.9 µM (inactive)
GI50 (TK-10): 19.5 µM (inactive)
GI50 (LOX IMVI): 32.7 µM (inactive)
GI50 (Hs-578T): 19.8 µM (inactive)
GI50 (OVCAR-4): 18.8 µM (inactive)
GI50 (786-0): 19.5 µM (inactive)
GI50 (UACC-257): 31.7 µM (inactive)
GI50 (EKVX): 10.1 µM (inactive)
GI50 (A498): 18.6 µM (inactive)
GI50 (SF-268): 19.4 µM (inactive)
GI50 (SF-295): 27.5 µM (inactive)
GI50 (M14): 41.4 µM (inactive)
GI50 (MDA-MB-231): 21.1 µM (inactive)
GI50 (SN12C): 25.5 µM (inactive)
GI50 (SNB-19): 15.6 µM (inactive)
GI50 (OVCAR-3): 19.2 µM (inactive)
GI50 (HCT-116): 22.2 µM (inactive)
GI50 (RXF 393): 24.3 µM (inactive)
GI50 (CAKI-1): 16.1 µM (inactive)
GI50 (MDA-MB-435): 25.5 µM (inactive)
GI50 (SW-620): 27 µM (inactive)
GI50 (SF-539): 18.5 µM (inactive)
GI50 (UACC-62): 22.9 µM (inactive)
GI50 (COLO 205): > 100 µM (inactive)
GI50 (Malme-3M): 24.7 µM (inactive)
GI50 (HCC 2998): 46.9 µM (inactive)
GI50 (OVCAR-5): 29.6 µM (inactive)
GI50 (NCI-H460): 23.7 µM (inactive)
GI50 (NCI-H226): 20.4 µM (inactive)
GI50 (SK-MEL-5): 21.3 µM (inactive)
GI50 (UO-31): 21.9 µM (inactive)
GI50 (HOP-62): 18.2 µM (inactive)
GI50 (DU-145): 44.8 µM (inactive)
GI50 (SK-OV-3): 27.7 µM (inactive)
GI50 (U-251): 29.8 µM (inactive)
GI50 (PC-3): 20 µM (inactive)
GI50 (NCI-H522): 36.1 µM (inactive)
GI50 (SR): 20.5 µM (inactive)
GI50 (HCT-15): 42.3 µM
GI50 (OVCAR-8): 19 µM (inactive)
GI50 (SK-MEL-2): 27.7 µM (inactive)
GI50 (RPMI-8226): 25.9 µM (inactive)
GI50 (T47D): 26.3 µM (inactive)
GI50 (KM12): 68.5 µM (inactive)
GI50 (MDA-N): 28.8 µM (inactive)
GI50 (HL-60): 78 µM (inactive)
GI50 (SK-MEL-28): 31 µM (inactive)
GI50 (NCI/ADR-RES): 27.4 µM (inactive)
GI50 (MOLT-4): > 100 µM (inactive)
